This is an account of results in ChEMBL document CHEMBL1201862, “PubChem BioAssay data set” (2004).

The source made the active and inactive calls.

Test [1] is described as follows: Luminescence Cell-Based Dose Response HTS to Identify Inhibitors of 5'UTR Stem-Loop Driven Prion Protein mRNA Translation in H4 Neuroglioblastoma Cells. [Related pubchem assays: 1827 (Project Summary), 1813 (Primary HTS)]. Format: functional.
Test [2] concerns the target Beta-lactamase (Salmonella choleraesuis (strain SC-B67), UniProt Q5J463). Put plainly: Epi-absorbance-based counterscreen for selective VIM-2 inhibitors: dose response biochemical high throughput screening assay to identify inhibitors of TEM-1 serine-beta-lactamase. On the technique in general: The purpose of a counterscreen is to sort out artefacts and off-target activity.

The target of test [3] is T1, Beta-lactamase (Pseudomonas aeruginosa, UniProt Q79MP6). Put plainly: IMP-1 metallo-beta-lactamase inhibitors, dose response, selectivity assay for VIM-2 inhibitor project, biochemical, epi-absorbance (AID 1920).
For test [4], the target named is DNA dC->dU-editing enzyme APOBEC-3A (Homo sapiens, UniProt P31941). Put plainly: APOBEC3A DNA deaminase inhibitors, dose response, biochemical (AID 504722). The test is classed as functional.
The target of test [5] is T1, Beta-lactamase. Put plainly: […] counterscreen for selective VIM-2 inhibitors: dose response biochemical high throughput screening assay to identify inhibitors of IMP-1 metallo-beta-lactamase.
Test [6] concerns the target DNA dC->dU-editing enzyme APOBEC-3G (Homo sapiens, UniProt Q9HC16). Put plainly: Dose Response confirmation of small molecule APOBEC3G DNA Deaminase Inhibitors via a fluorescence-based single-stranded DNA deaminase assay. [Related pubchem assays (depositor defined):AID493012, AID493028]. Format: functional.
A short description of test [7]: inhibitors of firefly luciferase expression or activity, dose response, H4 neuroglioma cells, luminescence (AID 1990). Format: functional, cell-based.
Test [8] can be described thus: inhibitors of SNCA 5'UTR-driven reporter translation, confirmation, H4 neuroglioma cells, luminescence (AID 1988). Format: functional, cell-based.
The target of test [9] is T2, Adenosylmethionine-8-amino-7-oxononanoate aminotransferase (Mycobacterium tuberculosis, UniProt P9WQ81).
T2 sequence (P9WQ81 whole entry): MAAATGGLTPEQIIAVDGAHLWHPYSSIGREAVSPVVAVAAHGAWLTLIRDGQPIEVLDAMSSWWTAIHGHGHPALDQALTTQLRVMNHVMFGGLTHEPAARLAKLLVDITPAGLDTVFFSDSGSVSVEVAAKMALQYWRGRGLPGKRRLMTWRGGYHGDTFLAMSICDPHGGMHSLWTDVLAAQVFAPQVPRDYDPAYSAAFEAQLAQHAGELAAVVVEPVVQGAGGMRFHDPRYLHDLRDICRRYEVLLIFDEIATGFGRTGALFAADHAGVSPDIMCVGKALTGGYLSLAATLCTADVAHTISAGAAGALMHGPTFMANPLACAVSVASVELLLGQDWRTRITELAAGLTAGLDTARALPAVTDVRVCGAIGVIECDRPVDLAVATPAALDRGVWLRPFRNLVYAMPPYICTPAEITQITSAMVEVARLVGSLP
Put plainly: Mycobacterium tuberculosis BioA enzyme inhibitor Measured in Biochemical System Using Plate Reader - 2163-02_Inhibitor_Dose_CherryPick_Activity. The test is classed as functional, Mycobacterium tuberculosis UT205.

Test [10] can be described thus: cytotoxicity in HEK293 cells, dose response, cytotoxicity control, cell-based, plate reader, cherry-pick (AID 651899). The test is classed as functional.
The next test has as its target Caspase-7 (Homo sapiens, UniProt P55210). Put plainly: human caspase-7 inhibitors, dose response, selectivity assay for caspase-6 inhibitor project, biochemical, DEVD-R110 fluorescence, cherry-pick (AID 743295). The test is classed as […].
The target in the next test is T3, Aminopeptidase N (Plasmodium falciparum FcB1/Columbia, UniProt O96935).
T3 sequence (O96935 whole entry): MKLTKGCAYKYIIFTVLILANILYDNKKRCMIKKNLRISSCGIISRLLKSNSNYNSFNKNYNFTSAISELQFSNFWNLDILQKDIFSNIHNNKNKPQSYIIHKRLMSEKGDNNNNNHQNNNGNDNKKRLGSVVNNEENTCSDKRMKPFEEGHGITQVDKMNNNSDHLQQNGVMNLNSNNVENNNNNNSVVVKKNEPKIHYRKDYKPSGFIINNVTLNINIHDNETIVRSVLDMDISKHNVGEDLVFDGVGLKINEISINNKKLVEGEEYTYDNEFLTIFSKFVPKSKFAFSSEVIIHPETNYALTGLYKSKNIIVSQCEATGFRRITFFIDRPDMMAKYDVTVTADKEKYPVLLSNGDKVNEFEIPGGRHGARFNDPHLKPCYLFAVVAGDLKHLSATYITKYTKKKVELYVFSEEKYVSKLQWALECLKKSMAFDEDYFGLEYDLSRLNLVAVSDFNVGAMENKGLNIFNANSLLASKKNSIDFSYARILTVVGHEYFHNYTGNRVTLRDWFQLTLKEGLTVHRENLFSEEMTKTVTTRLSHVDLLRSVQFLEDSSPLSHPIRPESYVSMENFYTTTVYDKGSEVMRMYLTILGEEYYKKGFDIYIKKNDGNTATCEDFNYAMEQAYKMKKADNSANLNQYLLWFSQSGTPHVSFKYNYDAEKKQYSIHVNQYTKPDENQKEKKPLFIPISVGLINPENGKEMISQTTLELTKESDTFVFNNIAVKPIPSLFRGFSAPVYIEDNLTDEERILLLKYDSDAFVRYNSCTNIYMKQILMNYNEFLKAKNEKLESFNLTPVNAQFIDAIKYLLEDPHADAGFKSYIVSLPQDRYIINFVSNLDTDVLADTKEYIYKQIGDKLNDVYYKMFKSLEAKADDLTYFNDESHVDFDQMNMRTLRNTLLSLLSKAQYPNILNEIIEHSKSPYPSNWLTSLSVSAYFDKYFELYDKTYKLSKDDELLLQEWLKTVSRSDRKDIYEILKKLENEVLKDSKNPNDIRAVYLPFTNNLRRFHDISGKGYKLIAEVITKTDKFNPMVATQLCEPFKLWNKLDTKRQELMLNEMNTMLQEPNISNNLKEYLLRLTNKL
Put plainly: P. falciparum M1AAP inhibitors, biochemical, fluorogenic H-Leu-NHMec substrate, 1536-well (AID 1445). Also on record: species or system Plasmodium falciparum 3D7, 3D7.

The target of the next test is Caspase-8 (Homo sapiens, UniProt Q14790). Put plainly: caspase-8 inhibition counter-screen, dose response, selectivity assay for caspase-6 inhibitor project, biochemical, Z-IETD-R110 fluorescence, cherry-picked samples (AID 743294).
Test [11] deals with T4, Small ubiquitin-related modifier 1 (Homo sapiens, UniProt P63165). Put plainly: inhibitors of SUMO1 peptide binding, dose response, biochemical, fluorescence polarization, uHTS hits (AID 624382). The test is classed as functional. To be noted: read-out: IC50_Mean.
The target of the next test is Genome polyprotein (dengue virus type 2, UniProt P29990). Put plainly: Dengue-2 NS5 methyltransferase inhibitors, primary screen, biochemical, confirmation dose response (AID 588689). Format: functional.
A further test has as its target T5, Caspase-6 (Homo sapiens, UniProt P55212).
T5 sequence (P55212 whole entry): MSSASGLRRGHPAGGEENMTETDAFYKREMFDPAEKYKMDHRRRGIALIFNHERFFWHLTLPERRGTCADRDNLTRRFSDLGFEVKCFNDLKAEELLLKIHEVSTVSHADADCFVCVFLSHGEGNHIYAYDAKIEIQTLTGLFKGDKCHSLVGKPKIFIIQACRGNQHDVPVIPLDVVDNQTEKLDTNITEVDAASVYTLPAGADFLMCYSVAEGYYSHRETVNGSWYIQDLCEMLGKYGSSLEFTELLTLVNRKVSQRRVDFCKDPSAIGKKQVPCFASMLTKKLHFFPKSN
Put plainly: human caspase-6 inhibitors, dose response, biochemical, VEID-R110 fluorescence, cherry-pick (AID 720632).

For test [12], the target named is T4, Small ubiquitin-related modifier 1. Put plainly: inhibitors of SUMO1 partner interactions, dose response, biochemical, FRET (AID 624383). The test is classed as functional. As to conditions: read-out: IC50_Mean.
For test [13], the target named is T6, ATP-dependent translocase ABCB1 (Homo sapiens, UniProt P08183). Put plainly: ABCG2 efflux pump inhibitor potency, dose response, Ig-MXP3 cells, JC-1, flow cytometry, set 2 (AID 504566).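 Further: flow cytometry median green fluorescence of retained JC-1 dye; potency of efflux pump inhibition measured as rising substrate retention.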 The test is classed as functional. To be noted: read-out: EC50_MICROM_. For orientation: In flow cytometry, cells or beads pass a laser one at a time.
In test [14] the target is T6, ATP-dependent translocase ABCB1. Put plainly: ABCB1 efflux inhibitor potency, dose response, Jurkat-DNR cells, JC-1, flow cytometry, set 2 (AID 504569).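 Further: potency of pump inhibitors that raise cellular JC-1 green fluorescence up to the nicardipine level.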 The test is classed as functional. As to conditions: read-out: EC50_MICROM_.
A further test concerns Vero. Put plainly: Vero cell toxicity, dose response, cytotoxicity control, plate reader, cherry-pick samples (AID 687020). Format: functional, cell-based. To be noted: Chlorocebus sabaeus.
The next test in a line: cells. Format: functional, cell-based.
The target of test [15] is T7, Nuclear receptor subfamily 0 group B member 1 (Homo sapiens, UniProt P51843).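 Further: HEK293T cells transfected with SF-1 and DAX-1 plus StAR promoter luciferase reporter.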
T7 sequence (P51843 whole entry): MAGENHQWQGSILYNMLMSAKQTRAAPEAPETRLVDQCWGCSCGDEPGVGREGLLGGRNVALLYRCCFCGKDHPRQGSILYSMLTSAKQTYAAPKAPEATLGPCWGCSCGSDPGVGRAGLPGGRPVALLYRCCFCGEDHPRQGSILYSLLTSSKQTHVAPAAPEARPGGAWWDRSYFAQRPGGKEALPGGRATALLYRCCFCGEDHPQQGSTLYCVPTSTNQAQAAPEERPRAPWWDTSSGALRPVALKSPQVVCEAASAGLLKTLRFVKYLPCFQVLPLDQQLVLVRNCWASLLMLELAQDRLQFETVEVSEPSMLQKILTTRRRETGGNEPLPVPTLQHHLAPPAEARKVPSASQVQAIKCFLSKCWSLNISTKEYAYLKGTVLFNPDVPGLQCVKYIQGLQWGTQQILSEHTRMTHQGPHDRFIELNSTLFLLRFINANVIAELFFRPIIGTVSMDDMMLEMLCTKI
The test is classed as functional, cell-based.

Test [16] addresses Arf-GAP with SH3 domain, ANK repeat and PH domain-containing protein 1 (Homo sapiens, UniProt Q9ULH1). Format: functional.
Another test addresses Protein Wnt-3a (Mus musculus, UniProt P27467). Put plainly: Wnt3a-driven reporter signaling inhibition, dose response, selectivity assay for Gli-SUFU antagonist project, Wnt-LIGHT cells, luminescence (AID 651570).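 Further: Wnt-LIGHT reporter cells stimulated with conditioned medium from Wnt3a-producing cells.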 Format: functional. To be noted: read-out: IC50_Mean.
Test [17] is described as follows: intracellular Trypanosoma cruzi inhibitors in host cells – cell-based, plate reader, cherry-pick samples, set 3, dose response (AID 651818).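 Further: compounds incubated with infected cells for about four days.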 The test is classed as functional.
The target in test [18] is Hepatocyte nuclear factor 4-alpha (Homo sapiens, UniProt P41235). Format: functional, cell-based.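 Further: biochemical luminescence-based dose-response counterscreen measuring inhibition of HNF4 dimerization, run alongside a screen for blockers of ABHD5–perilipin-5 interaction; split luciferase complementation of HNF4 fusion proteins in cell lysate measuring dimerization.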
The target in test [19] is T8, Low molecular weight phosphotyrosine protein phosphatase (Homo sapiens, UniProt P24666).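 Further: Dose-response confirmation assay measuring inhibition of LMPTP enzyme activity by fluorescence intensity read-out.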
T8 sequence (P24666 whole entry): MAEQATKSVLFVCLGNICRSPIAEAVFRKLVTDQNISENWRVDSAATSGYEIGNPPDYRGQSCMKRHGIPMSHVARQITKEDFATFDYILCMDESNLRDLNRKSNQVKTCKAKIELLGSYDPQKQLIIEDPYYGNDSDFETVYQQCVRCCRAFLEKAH
Format: functional. To be noted: read-out: IC50_Mean.

T1 sequence (Q79MP6 whole entry): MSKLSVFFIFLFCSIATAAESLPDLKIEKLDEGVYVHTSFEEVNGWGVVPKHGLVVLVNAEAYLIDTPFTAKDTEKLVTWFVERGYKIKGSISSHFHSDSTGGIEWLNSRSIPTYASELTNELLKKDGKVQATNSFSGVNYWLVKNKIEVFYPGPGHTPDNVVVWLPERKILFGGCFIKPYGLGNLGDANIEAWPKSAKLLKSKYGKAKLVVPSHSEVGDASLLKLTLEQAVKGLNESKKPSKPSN
T6 sequence (P08183 whole entry): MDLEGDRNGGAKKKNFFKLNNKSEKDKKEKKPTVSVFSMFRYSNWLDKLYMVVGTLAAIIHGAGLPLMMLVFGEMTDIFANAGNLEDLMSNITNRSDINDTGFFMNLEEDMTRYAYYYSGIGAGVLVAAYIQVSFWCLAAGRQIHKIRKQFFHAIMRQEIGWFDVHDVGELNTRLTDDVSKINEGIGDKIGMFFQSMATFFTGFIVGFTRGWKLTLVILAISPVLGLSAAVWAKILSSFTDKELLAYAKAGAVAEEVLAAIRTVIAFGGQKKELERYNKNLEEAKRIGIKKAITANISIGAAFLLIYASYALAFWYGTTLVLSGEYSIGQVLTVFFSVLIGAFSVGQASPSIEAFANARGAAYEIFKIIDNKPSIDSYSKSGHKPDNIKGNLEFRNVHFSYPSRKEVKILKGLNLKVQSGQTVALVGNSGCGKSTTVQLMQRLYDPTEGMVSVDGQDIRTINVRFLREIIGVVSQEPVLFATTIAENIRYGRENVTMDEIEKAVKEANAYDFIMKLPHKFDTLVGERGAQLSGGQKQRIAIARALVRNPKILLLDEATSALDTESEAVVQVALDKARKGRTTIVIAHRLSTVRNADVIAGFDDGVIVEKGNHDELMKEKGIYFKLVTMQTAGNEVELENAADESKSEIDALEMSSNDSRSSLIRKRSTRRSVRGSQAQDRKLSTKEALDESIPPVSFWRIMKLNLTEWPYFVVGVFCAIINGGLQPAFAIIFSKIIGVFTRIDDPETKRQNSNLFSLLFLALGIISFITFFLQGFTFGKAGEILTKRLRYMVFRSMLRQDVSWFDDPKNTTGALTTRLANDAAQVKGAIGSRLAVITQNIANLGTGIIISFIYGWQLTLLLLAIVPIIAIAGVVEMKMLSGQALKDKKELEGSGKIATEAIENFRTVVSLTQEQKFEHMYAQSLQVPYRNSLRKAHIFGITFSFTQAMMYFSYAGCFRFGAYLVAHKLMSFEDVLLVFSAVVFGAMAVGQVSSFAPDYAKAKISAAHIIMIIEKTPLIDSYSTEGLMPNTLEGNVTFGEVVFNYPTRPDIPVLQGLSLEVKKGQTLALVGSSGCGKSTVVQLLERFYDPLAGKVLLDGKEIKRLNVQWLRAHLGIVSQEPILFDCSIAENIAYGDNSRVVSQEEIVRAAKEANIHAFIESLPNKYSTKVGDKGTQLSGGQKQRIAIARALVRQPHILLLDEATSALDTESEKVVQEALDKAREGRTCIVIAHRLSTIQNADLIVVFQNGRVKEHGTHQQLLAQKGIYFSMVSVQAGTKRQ
T4 sequence (P63165 whole entry): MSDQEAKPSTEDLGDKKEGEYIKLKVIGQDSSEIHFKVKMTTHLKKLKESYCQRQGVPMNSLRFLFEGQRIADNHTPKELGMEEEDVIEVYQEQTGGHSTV
Beta-lactamase (Salmonella choleraesuis (strain SC-B67), UniProt Q5J463), sequence (Q5J463 whole entry): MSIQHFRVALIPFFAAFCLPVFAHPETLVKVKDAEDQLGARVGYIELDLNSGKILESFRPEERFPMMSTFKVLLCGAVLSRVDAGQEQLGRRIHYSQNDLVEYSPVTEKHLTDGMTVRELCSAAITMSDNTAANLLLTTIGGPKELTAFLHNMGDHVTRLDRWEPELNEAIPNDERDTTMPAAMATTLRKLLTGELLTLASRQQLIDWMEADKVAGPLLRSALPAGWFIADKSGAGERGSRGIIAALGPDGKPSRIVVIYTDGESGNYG
Caspase-7, sequence (P55210 24-198 limits assumed): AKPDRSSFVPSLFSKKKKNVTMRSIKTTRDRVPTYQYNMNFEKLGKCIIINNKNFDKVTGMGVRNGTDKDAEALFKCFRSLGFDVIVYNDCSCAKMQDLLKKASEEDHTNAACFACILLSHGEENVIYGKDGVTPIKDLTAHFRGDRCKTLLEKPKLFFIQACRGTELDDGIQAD
Caspase-7, sequence (P55210 207-303 limits assumed): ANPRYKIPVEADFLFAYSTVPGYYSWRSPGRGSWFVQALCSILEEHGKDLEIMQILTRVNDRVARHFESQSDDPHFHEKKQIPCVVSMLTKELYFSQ
DNA dC->dU-editing enzyme APOBEC-3A, sequence (P31941 whole entry): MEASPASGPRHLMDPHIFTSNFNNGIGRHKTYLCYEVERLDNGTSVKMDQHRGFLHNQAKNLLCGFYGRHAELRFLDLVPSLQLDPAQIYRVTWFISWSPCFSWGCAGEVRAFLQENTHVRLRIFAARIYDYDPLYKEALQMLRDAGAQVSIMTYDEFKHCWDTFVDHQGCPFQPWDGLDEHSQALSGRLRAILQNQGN
Caspase-8, sequence (Q14790 217-374 limits assumed): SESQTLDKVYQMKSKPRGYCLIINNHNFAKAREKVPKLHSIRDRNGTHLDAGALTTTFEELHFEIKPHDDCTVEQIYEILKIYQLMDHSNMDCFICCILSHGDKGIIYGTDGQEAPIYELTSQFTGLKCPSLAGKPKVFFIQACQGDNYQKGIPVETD
Caspase-8, sequence (Q14790 385-479 limits assumed): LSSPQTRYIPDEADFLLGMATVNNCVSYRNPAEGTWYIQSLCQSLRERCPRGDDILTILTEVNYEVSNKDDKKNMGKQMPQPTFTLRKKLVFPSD
Protein Wnt-3a, sequence (P27467 whole entry): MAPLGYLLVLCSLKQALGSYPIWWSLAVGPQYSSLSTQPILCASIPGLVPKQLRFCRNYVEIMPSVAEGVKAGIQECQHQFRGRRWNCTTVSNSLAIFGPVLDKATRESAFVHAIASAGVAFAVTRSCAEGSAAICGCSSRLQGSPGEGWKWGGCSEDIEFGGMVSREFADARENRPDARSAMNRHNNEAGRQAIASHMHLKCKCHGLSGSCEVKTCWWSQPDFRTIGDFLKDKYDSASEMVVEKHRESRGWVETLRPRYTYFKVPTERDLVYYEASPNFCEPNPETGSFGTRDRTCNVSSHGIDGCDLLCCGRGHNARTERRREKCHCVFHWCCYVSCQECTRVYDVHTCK
Arf-GAP with SH3 domain, ANK repeat and PH domain-containing protein 1, sequence (Q9ULH1 whole entry, the tested form may be a part): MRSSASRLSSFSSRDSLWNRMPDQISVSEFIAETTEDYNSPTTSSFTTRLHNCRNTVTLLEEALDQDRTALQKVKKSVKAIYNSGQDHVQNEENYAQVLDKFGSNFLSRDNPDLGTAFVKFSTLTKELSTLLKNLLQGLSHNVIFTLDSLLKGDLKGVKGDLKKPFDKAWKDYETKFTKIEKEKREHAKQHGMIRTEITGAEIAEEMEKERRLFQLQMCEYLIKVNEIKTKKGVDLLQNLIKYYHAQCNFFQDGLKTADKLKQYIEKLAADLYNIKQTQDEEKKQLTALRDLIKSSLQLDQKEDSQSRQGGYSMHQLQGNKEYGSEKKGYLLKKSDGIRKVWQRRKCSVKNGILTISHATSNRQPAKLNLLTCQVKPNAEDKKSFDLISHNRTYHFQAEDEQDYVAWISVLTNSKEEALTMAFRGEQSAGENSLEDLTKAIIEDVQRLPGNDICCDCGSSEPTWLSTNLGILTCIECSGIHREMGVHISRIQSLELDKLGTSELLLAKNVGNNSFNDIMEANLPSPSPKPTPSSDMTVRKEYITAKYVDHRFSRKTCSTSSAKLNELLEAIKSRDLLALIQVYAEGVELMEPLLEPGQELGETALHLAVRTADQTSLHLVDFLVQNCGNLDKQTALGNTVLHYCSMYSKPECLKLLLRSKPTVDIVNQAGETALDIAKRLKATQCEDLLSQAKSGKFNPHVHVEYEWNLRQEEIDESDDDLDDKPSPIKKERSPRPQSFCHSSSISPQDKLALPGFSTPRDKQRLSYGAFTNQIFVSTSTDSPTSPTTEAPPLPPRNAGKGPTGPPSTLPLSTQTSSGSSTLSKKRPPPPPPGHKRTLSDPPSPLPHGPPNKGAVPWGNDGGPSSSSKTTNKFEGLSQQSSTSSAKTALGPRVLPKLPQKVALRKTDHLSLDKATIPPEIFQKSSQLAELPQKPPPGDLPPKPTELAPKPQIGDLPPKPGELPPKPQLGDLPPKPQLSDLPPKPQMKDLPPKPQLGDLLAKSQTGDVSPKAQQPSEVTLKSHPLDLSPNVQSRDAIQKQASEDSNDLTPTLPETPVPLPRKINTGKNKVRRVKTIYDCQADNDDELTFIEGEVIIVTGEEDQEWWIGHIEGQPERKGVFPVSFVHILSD
DNA dC->dU-editing enzyme APOBEC-3G, sequence (Q9HC16 whole entry): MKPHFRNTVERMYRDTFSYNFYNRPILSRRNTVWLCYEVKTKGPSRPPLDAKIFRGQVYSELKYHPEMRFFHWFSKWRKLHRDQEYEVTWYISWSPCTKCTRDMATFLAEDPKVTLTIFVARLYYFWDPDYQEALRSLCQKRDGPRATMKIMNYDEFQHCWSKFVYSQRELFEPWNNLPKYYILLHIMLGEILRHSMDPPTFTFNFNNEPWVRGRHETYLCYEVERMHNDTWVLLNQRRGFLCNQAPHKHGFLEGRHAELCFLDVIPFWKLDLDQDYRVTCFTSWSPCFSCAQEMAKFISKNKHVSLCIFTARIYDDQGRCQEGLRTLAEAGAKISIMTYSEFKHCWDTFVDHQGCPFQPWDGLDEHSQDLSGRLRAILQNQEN

Regarding `Sc1nnc(-c2ccccc2)n1C1C=CCCC1` (configuration not stated), the EC50 is 104 µM (active) in test [1], > 120 µM (not active) in [7] and > 120 µM (not active) in [8]. Also, the IC50 on Beta-lactamase [2] was > 59.6 µM (inactive); on Beta-lactamase [3] it was > 59.6 µM (inactive); in test [4] it was > 100 µM (inactive); on Beta-lactamase [5], > 59.6 µM (inactive); in test [6], 5.37 µM (active).
Turning to `COc1ccccc1S(=O)(=O)N1CC[C@@H]2[C@H](CO)Nc3ccc(-c4ccccc4)cc3[C@@H]21`, the values for the AC50 in test [9] and in test [10] were 16.5 µM (active) and 19.3 µM (active), respectively.
Regarding `COc1cc(C)c2c(c1C=O)Oc1c(c(C)c(O)c3c1C(O)OC3=O)OC2=O` (configuration not stated) [STICTIC ACID], the AC50 (in general, the midpoint of the concentration-response curve, whichever way the signal moves) was 44.3 µM (active) at Caspase-7, > 70 µM (inactive) at Caspase-8 and 817 nM (active) at Caspase-6. Besides, the IC50 on Aminopeptidase N is 27.3 µM (active); in test [11], > 66.6 µM (inactive); at Genome polyprotein, 71.2 µM (active); in test [12], 7.69 µM (active).
Take `O=C(c1cccnc1)N1CCN(c2cc(-c3ccccc3)nc3cc(-c4cccc(Cl)c4)nn23)CC1`: the EC50 in test [13] was 370 nM (active); in [14], 520 nM (active).
Take `Cc1c(CCC(=O)NCCCN2CCCC2=O)c(=O)oc2cc(O)ccc12`: the AC50 in the test with Vero is 30.1 µM (active).
Regarding `COc1cc(OC)c2c(=O)cc(-c3ccccc3)oc2c1` [CHRYSIN DIMETHYL ETHER], the IC50 (in “cells”; in test [15]) was > 67.6 µM (inactive) in each case.
Regarding `O=C(/C=C/c1ccco1)Nc1ccc(-c2nc3ccccc3[nH]2)cc1`, the IC50 was 14 µM (inactive) in [16] and 14.6 µM (active) at Protein Wnt-3a.
`C[C@@H]1CN([C@@H](C)CO)C(=O)Cc2cc(NS(=O)(=O)c3ccc(Cl)cc3)ccc2O[C@@H]1CN(C)Cc1ccc(Cl)c(Cl)c1`: the AC50 in test [17] was 5.1 µM (active).
`O=C(NC1CCCCC1)C(c1ccccc1)n1c(=O)c(-c2ccco2)nc2ccccc21` (configuration not stated): in test [18], the IC50 was 817 nM (active).
`CCn1cc(C(=O)O)c(=O)c2cc(F)c(N3CCN(C(=S)NC(=O)c4c(OC)cccc4OC)CC3)cc21`: the IC50 in test [19] is 14 µM (active).
